Active and inactive are the calls of the source. The rule behind the calls is not given here.
Experiments:
[1] = test system: Vaccinia virus WR; experiment: Antiviral activity against Vaccinia virus WR ATCC VR-1354 infected through intraperitoneal route in BALB/c mouse assessed as reduction of viral load in spleen at 100 mg/kg, po qd measured after 5 days postinfection by RT-PCR analysis relative to control; assay type: functional, organism-based; design: dose 100 mg/kg
[2] = test system: Vaccinia virus WR; experiment: Antiviral activity against Vaccinia virus WR ATCC VR-1354 infected through dermal scarification route in BALB/c mouse assessed as protection against virus-induced systemic disease symptoms at 100 mg/kg, po qd measured after 9 days postinfection; assay type: functional, organism-based; design: dose 100 mg/kg
[3] = test system: Vaccinia virus WR; experiment: Antiviral activity against Vaccinia virus WR ATCC VR-1354 infected through intravenous route in BALB/c mouse assessed as reduction of viral load in liver at 100 mg/kg, po qd measured after 14 days postinfection by RT-PCR analysis relative to control; assay type: functional, organism-based; design: dose 100 mg/kg
[4] = test system: Vaccinia virus WR; experiment: Antiviral activity against Vaccinia virus WR ATCC VR-1354 infected through percutaneous route in BALB/c mouse assessed as protection against virus-induced systemic disease symptoms at 100 mg/kg, po qd measured after 6 days postinfection; assay type: functional, organism-based; design: dose 100 mg/kg
[5] = test system: Vaccinia virus WR; experiment: Antiviral activity against Vaccinia virus WR ATCC VR-1354 infected through intravenous route in BALB/c mouse assessed as reduction of viral load in brain at 100 mg/kg, po qd measured after 3 days postinfection by RT-PCR analysis relative to control; assay type: functional
[6] = test system: Vaccinia virus WR; experiment: Antiviral activity against Vaccinia virus WR ATCC VR-1354 infected through dermal scarification route in BALB/c mouse assessed as protection against virus-induced satellite lesion formation on tails at 100 mg/kg, po qd measured after 6 days postinfection; assay type: functional, organism-based; design: dose 100 mg/kg
[7] = test system: Vaccinia virus WR; experiment: Antiviral activity against Vaccinia virus WR ATCC VR-1354 infected through dermal scarification route in BALB/c mouse assessed as reduction of viral load in lung at 100 mg/kg, po qd measured after 5 days postinfection by RT-PCR analysis relative to control; assay type: functional
[8] = test system: Vaccinia virus WR; experiment: Antiviral activity against Vaccinia virus WR ATCC VR-1354 infected through dermal scarification route in ACAM2000 vaccinated BALB/c mouse assessed as reduction of swab virus titers at 100 mg/kg, po qd measured after 14 days postinfection by RT-PCR analysis relative to control; assay type: functional
[9] = test system: Vaccinia virus WR; experiment: Antiviral activity against Vaccinia virus WR ATCC VR-1354 infected through intravenous route in BALB/c mouse assessed as reduction of viral load in liver at 100 mg/kg, po qd measured after 3 days postinfection by RT-PCR analysis relative to control; assay type: functional
[10] = test system: Vaccinia virus WR; experiment: Antiviral activity against Vaccinia virus WR ATCC VR-1354 infected through percutaneous route in BALB/c mouse assessed as protection against hypothermia at 100 mg/kg, po qd for 1 to 3 days measured on day 6; assay type: functional, organism-based; design: dose 100 mg/kg
[11] = test system: Vaccinia virus WR; experiment: Antiviral activity against Vaccinia virus WR ATCC VR-1354 infected through intravenous route in BALB/c mouse assessed as reduction of viral load in spleen at 100 mg/kg, po qd measured after 14 days postinfection by RT-PCR analysis relative to control; assay type: functional, organism-based; design: dose 100 mg/kg
[12] = test system: Vaccinia virus WR; experiment: Antiviral activity against Vaccinia virus WR ATCC VR-1354 infected through percutaneous route in BALB/c mouse assessed as reduction of viral load in spleen at 100 mg/kg, po qd measured after 5 days postinfection by RT-PCR analysis relative to control; assay type: functional
[13] = test system: Vaccinia virus WR; experiment: Antiviral activity against Vaccinia virus WR ATCC VR-1354 infected through percutaneous route in BALB/c mouse assessed as reduction of viral load in liver at 100 mg/kg, po qd measured after 5 days postinfection by RT-PCR analysis relative to control; assay type: functional
[14] = test system: Vaccinia virus WR; experiment: Antiviral activity against Vaccinia virus WR ATCC VR-1354 infected through percutaneous route in BALB/c mouse assessed as inhibition of virus dissemination in brain at 100 mg/kg, po qd for 3 to 14 days by RT-PCR analysis; assay type: functional, organism-based; design: dose 100 mg/kg
[15] = test system: Vaccinia virus WR; experiment: Antiviral activity against Vaccinia virus WR ATCC VR-1354 infected through percutaneous route in BALB/c mouse assessed as inhibition of virus dissemination in blood at 100 mg/kg, po qd for 3 to 14 days by RT-PCR analysis; assay type: functional, organism-based; design: dose 100 mg/kg
[16] = test system: Vaccinia virus WR; experiment: Antiviral activity against Vaccinia virus WR ATCC VR-1354 infected through percutaneous route in BALB/c mouse assessed as reduction of viral load in lungs at 100 mg/kg, po qd measured after 5 days postinfection by RT-PCR analysis relative to control; assay type: functional
[17] = test system: Vaccinia virus WR; experiment: Antiviral activity against Vaccinia virus WR ATCC VR-1354 infected through percutaneous route in BALB/c mouse assessed as reduction of viral load in spleen at 100 mg/kg, po qd measured after 3 days postinfection by RT-PCR analysis relative to control; assay type: functional
[18] = test system: Vaccinia virus WR; experiment: Antiviral activity against Vaccinia virus WR ATCC VR-1354 infected through percutaneous route in BALB/c mouse assessed as inhibition of virus dissemination in liver at 100 mg/kg, po qd for 1 day by RT-PCR analysis; assay type: functional, organism-based; design: dose 100 mg/kg
[19] = test system: Vaccinia virus WR; experiment: Antiviral activity against Vaccinia virus WR ATCC VR-1354 infected through intraperitoneal route in BALB/c mouse assessed as reduction of viral load in lung at 100 mg/kg, po qd measured after 3 days postinfection by RT-PCR analysis relative to control; assay type: functional, organism-based; design: dose 100 mg/kg
[20] = test system: Vaccinia virus WR; experiment: Antiviral activity against Vaccinia virus WR ATCC VR-1354 infected through intravenous route in BALB/c mouse assessed as protection against virus-induced systemic disease symptoms at 100 mg/kg, po qd measured after 9 days postinfection; assay type: functional, organism-based; design: dose 100 mg/kg
[21] = test system: Vaccinia virus WR; experiment: Antiviral activity against Vaccinia virus WR ATCC VR-1354 infected through subcutaneous route in BALB/c mouse assessed as reduction of viral load in lung at 100 mg/kg, po qd measured after 3 to 5 days postinfection by RT-PCR analysis relative to control; assay type: functional
[22] = test system: Vaccinia virus WR; experiment: Antiviral activity against Vaccinia virus WR ATCC VR-1354 infected through subcutaneous route in BALB/c mouse assessed as protection against virus-induced satellite lesion formation on tails at 100 mg/kg, po qd measured after 6 days postinfection; assay type: functional, organism-based; design: dose 100 mg/kg
[23] = test system: Vaccinia virus WR; experiment: Antiviral activity against Vaccinia virus WR ATCC VR-1354 infected through percutaneous route in BALB/c mouse assessed as reduction of viral load in spleen at 100 mg/kg, po qd measured after 7 days postinfection by RT-PCR analysis relative to control; assay type: functional, organism-based; design: dose 100 mg/kg
[24] = test system: Vaccinia virus WR; experiment: Antiviral activity against Vaccinia virus WR ATCC VR-1354 infected through percutaneous route in BALB/c mouse assessed as reduction of viral load in brain at 100 mg/kg, po qd measured after 3 days postinfection by RT-PCR analysis relative to control; assay type: functional
[25] = test system: Vaccinia virus WR; experiment: Antiviral activity against Vaccinia virus WR ATCC VR-1354 infected through percutaneous route in BALB/c mouse assessed as protection against virus-induced death at 100 mg/kg, po qd for 5 to 14 days; assay type: functional, organism-based; design: dose 100 mg/kg
[26] = test system: Vaccinia virus WR; experiment: Antiviral activity against Vaccinia virus WR ATCC VR-1354 infected through intraperitoneal route in BALB/c mouse assessed as reduction of viral load in liver at 100 mg/kg, po qd measured after 3 days postinfection by RT-PCR analysis relative to control; assay type: functional, organism-based; design: dose 100 mg/kg

Question: O=C(NN1C(=O)[C@@H]2[C@@H]3C=C[C@@H]([C@H]4C[C@@H]34)[C@@H]2C1=O)c1ccc(C(F)(F)F)cc1 [TECOVIRIMAT] was tested. Which Activity [1] did it give?
Answer: Active

Question: And the Activity [2]?
Answer: Active

Question: What about the Activity [3] of the same molecule?
Answer: Active

Question: What about the Activity [4] of the same molecule?
Answer: Active

Question: And the “fold change (FC)” value [5]?
Answer: 23

Question: What about the Activity [6] of the same molecule?
Answer: Active

Question: What about the “fold change (FC)” value [7] of the same molecule?
Answer: 18

Question: And the “fold change (FC)” value [8]?
Answer: 25

Question: What about the “fold change (FC)” value [9] of the same molecule?
Answer: 8

Question: And the Activity [10]?
Answer: Active

Question: What about the Activity [11] of the same molecule?
Answer: Active

Question: What about the “fold change (FC)” value [12] of the same molecule?
Answer: 44000

Question: What about the “fold change (FC)” value [13] of the same molecule?
Answer: 300

Question: What about the Activity [14] of the same molecule?
Answer: Active

Question: And the Activity [15]?
Answer: Active

Question: And the “fold change (FC)” value [16]?
Answer: 3.5

Question: And the “fold change (FC)” value [17]?
Answer: 300

Question: And the Activity [18]?
Answer: inactive

Question: And the Activity [19]?
Answer: inactive

Question: And the Activity [20]?
Answer: Active

Question: And the “fold change (FC)” value [21]?
Answer: 30

Question: What about the Activity [22] of the same molecule?
Answer: Active

Question: And the Activity [23]?
Answer: Active

Question: What about the “fold change (FC)” value [24] of the same molecule?
Answer: 1.78

Question: What about the Activity [25] of the same molecule?
Answer: Active

Question: And the Activity [26]?
Answer: inactive
